Assay results as given in patent publication US12593865B2, “Member for flavor inhalation article, flavor inhalation article, phenol scavenger for flavor inhalation article, and method for producing flavor inhalation article” (Japan Tobacco Inc., priority 2019, dated 2026).

Key:
[1] = physchem
[2] = Dropping point DP of the substance (JIS K2220:2013); format: physicochemical
Protocol: A substance having a dropping point (DP) of 50° C. or higher is less likely to be fluidized under relatively high temperature storage conditions, e.g., in a vending machine having a high temperature. […] Furthermore, when the phenol scavenger contains a substance that is less likely to leak out from a filter or the like, the substance is likely to remain in the filter or the like, and therefore, a member having excellent phenol selective filtering performance can be realized. […] The dropping point of the substance is preferably in a range from 50° C. to 130° C. When the dropping point of the substance is excessively high, the phenol scavenger containing the substance may not be easily carried by a filter or the like, which is not preferable. The dropping point of the substance can be measured according to JIS K2220:2013.
In general, a “dropping point” is a physical property specified for a substance that is semisolid at room temperature such as grease, but a “dropping point” herein is a physical property specified not only for a substance that is semisolid at room temperature but also for a substance that is solid at room temperature. A dropping point of a substance that is solid at room temperature is, for example, equal to its melting point.

[3] = Distance between Hansen solubility parameter of the substance and that of phenol, HSP (phenol); format: physicochemical; settings: distance to Hansen solubility parameter of phenol, 25° C.
Description: The Hansen solubility parameter is obtained by decomposing solubility parameter δt (SP) introduced by a person into dispersion force contribution term δd between molecules, dipole interaction contribution term δp between molecules, and hydrogen bond contribution term δh between molecules, thereby extending an applicable substance to a polar substance and a substance generating hydrogen bonding. […] The relationship between the solubility parameter δt and the three contribution terms is shown in the following formula: […]
The three parameters of the dispersion force contribution term δd, the dipole interaction contribution term δp, and the hydrogen bond contribution term δh can be regarded as coordinates in a three-dimensional space with the respective parameters as axes. Since various substances have specific HSPs at a specified temperature, HSPs of these substances are represented as points at different positions in the three-dimensional space as shown in FIG. 1. The solubility (compatibility) between given substance i and another substance j is considered to be higher as distance Rij between two points represented by the following formula becomes smaller.
Accordingly, a magnitude of influence of given substance X on phenol selective filtering performance can be evaluated by obtaining a distance between a position of HSP of phenol and a position of HSP of the given substance X in the three-dimensional space. In the present specification and claims, the distance Rij obtained from the Hansen solubility parameter of phenol and the Hansen solubility parameter of the given substance X according to the above formula is defined as HSP (phenol).

[4] = Octanol/water partition coefficient Log P at 25° C.; settings: for logP: n-octanol/water

| Structure (SMILES) | Vapor Pressure (Pa) at 25° C. [Pa] | dropping point DP [2] [°C] | HSP (phenol) [3] | logP [4] | Partition Coefficient Log P at 25° C. ([4]; octanol/water, 25° C.) | logP [1] |
| --- | --- | --- | --- | --- | --- | --- |
| CC(O)CCO (centres unmarked) [1,3-butanediol] | 8 | – | – | – | – | -0.74 |
| O=C(O)c1ccccc1 [Benzoic acid, benzoic acid] | – | 122 | 5.17 | – | – | – |
| CC1=C(O)C(=O)CC1 [Cyclotene, cyclotene] | – | 71 | 5.37 | 0.22 | – | – |
| CCOC(=O)CCC(=O)OCC [Diethyl succinate, diethyl succinate, reference compound] | – | – | – | 1.26 | – | – |
| Cc1occc(=O)c1O [Maltol, maltol] | – | 78 | 6.89 | -0.26 | – | – |

Further lines, with some results ahead:

| Vapor Pressure (Pa) at 25° C. [Pa] | dropping point DP [2] [°C] | HSP (phenol) [3] | logP [4] | Partition Coefficient Log P at 25° C. ([4]; octanol/water, 25° C.) | Structure (SMILES) | logP [1] |
| --- | --- | --- | --- | --- | --- | --- |
| – | – | 8 | – | – | CC(O)CO (centres unmarked) [Propylene glycol, propylene glycol, reference compound] | – |
| 0 | 4 | 7.18 | – | 0.25 | CC(=O)OCC(COC(C)=O)OC(C)=O [Triacetin, triacetin, reference compound] | – |
| 0 | 54 | 5.56 | 1.54 | – | COc1cc(CCC(C)=O)ccc1O [Zingerone, zingerone] | – |
